Assay results: PubChem BioAssay AID330 (DTP/NCI, 2004)
Where “and” joins values, the source holds several entries; their conditions need not be identical. Equal entries are not always repeated. Toxic doses and inconclusive results are not listed. The calls were made as follows: active = survival T/C of 150% or more; inactive = T/C below 125% in these data.

System: P388 leukemia ip, CD2F1 mice, survival T/C
Assay: NCI In Vivo Anticancer Drug Screen. Data for tumor model P388 Leukemia (intraperitoneal) in CD2F1 (CDF1) mice
Details: endpoint: median survival time, higher = longer survival
Method in brief: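 Mice carrying the transplanted tumor received test compound or vehicle. Survival was recorded in each group, and the value is the treated-group measurement divided by that of the vehicle-treated control group.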

[1] = dose: 25.0 mg/kg/injection, schedule: Q01DX005 (ip), vehicle: Klucel (hydroxypropylcellulose) (HPC)
[2] = dose: 50.0 mg/kg/injection, schedule: Q01DX005 (ip), vehicle: Klucel (hydroxypropylcellulose) (HPC)
[3] = dose: 100.0 mg/kg/injection, schedule: Q01DX005 (ip), vehicle: Klucel (hydroxypropylcellulose) (HPC)
[4] = dose: 50.0 mg/kg/injection, schedule: Q01DX009 (ip), vehicle: saline with Tween-80
[5] = dose: 100.0 mg/kg/injection, schedule: Q01DX009 (ip), vehicle: saline with Tween-80
[6] = dose: 200.0 mg/kg/injection, schedule: Q01DX009 (ip), vehicle: saline with Tween-80

Measured: T/C

COc1ccc(N2c3ccccc3-c3cc[nH]c(=O)c3[C@H]2O)cc1OC
inactive: dose: 18.75 mg/kg/injection, schedule: Q01DX001 (ip), vehicle: Klucel (hydroxypropylcellulose) (HPC) 101 % of control | dose: 18.75 mg/kg/injection, schedule: Q04DX002 (ip), vehicle: Klucel (hydroxypropylcellulose) (HPC) 99 % of control | dose: 18.75 mg/kg/injection, schedule: Q04DX003 (ip), vehicle: Klucel (hydroxypropylcellulose) (HPC) 112 % of control | dose: 37.5 mg/kg/injection, schedule: Q01DX001 (ip), vehicle: Klucel (hydroxypropylcellulose) (HPC) 100 % of control | dose: 37.5 mg/kg/injection, schedule: Q04DX002 (ip), vehicle: Klucel (hydroxypropylcellulose) (HPC) 110 % of control | dose: 37.5 mg/kg/injection, schedule: Q04DX003 (ip), vehicle: Klucel (hydroxypropylcellulose) (HPC) 96 % of control | dose: 75.0 mg/kg/injection, schedule: Q01DX001 (ip), vehicle: Klucel (hydroxypropylcellulose) (HPC) 103 % of control | dose: 75.0 mg/kg/injection, schedule: Q04DX002 (ip), vehicle: Klucel (hydroxypropylcellulose) (HPC) 106 % of control | dose: 75.0 mg/kg/injection, schedule: Q04DX003 (ip), vehicle: Klucel (hydroxypropylcellulose) (HPC) 96 % of control | dose: 150.0 mg/kg/injection, schedule: Q01DX001 (ip), vehicle: Klucel (hydroxypropylcellulose) (HPC) 104 % of control | dose: 150.0 mg/kg/injection, schedule: Q04DX002 (ip), vehicle: Klucel (hydroxypropylcellulose) (HPC) 101 % of control | dose: 150.0 mg/kg/injection, schedule: Q04DX003 (ip), vehicle: Klucel (hydroxypropylcellulose) (HPC) 106 % of control

CC(C)N1CCOC1c1ccccc1 (stereo not drawn)
inactive: dose: 50.0 mg/kg/injection, schedule: Q04DX003 (ip), vehicle: saline sonified 109 % of control | dose: 100.0 mg/kg/injection, schedule: Q04DX003 (ip), vehicle: saline sonified 118 % of control | dose: 200.0 mg/kg/injection, schedule: Q04DX003 (ip), vehicle: saline sonified 109 % of control

Nc1cccc2c1C(=O)c1cccc3snc-2c13
inactive: dose: 12.5 mg/kg/injection, schedule: Q01DX005 (ip), vehicle: Klucel (hydroxypropylcellulose) (HPC) 102 % of control | [1] 104 % of control | [2] 100 % of control and 97 % of control | [3] 87 % of control

CCN(CC)CCCC(C)Nc1cc(C)nc(Nc2nc3cc(Cl)c(Cl)cc3[nH]2)n1 (stereo not drawn)
inactive: dose: 2.5 mg/kg/injection, schedule: Q01DX009 (ip), vehicle: saline with Tween-80 100 % of control | dose: 5.0 mg/kg/injection, schedule: Q01DX009 (ip), vehicle: saline with Tween-80 90 % of control | dose: 10.0 mg/kg/injection, schedule: Q01DX009 (ip), vehicle: saline with Tween-80 100 % of control

C=C(CCCCOCOCCOC)c1ccccc1
inactive: dose: 50.0 mg/kg/injection, schedule: Q01DX005 (ip), vehicle: saline 106 % of control | dose: 100.0 mg/kg/injection, schedule: Q01DX005 (ip), vehicle: saline 107 % of control | dose: 200.0 mg/kg/injection, schedule: Q01DX005 (ip), vehicle: saline 99 % of control

NC(=O)CC1Cc2ccc3ccc(O)cc3c2C1=O (stereo not drawn)
inactive: dose: 12.5 mg/kg/injection, schedule: Q01DX009 (ip), vehicle: distilled water + Tween-80 100 % of control | dose: 25.0 mg/kg/injection, schedule: Q01DX009 (ip), vehicle: distilled water + Tween-80 97 % of control | dose: 50.0 mg/kg/injection, schedule: Q01DX009 (ip), vehicle: distilled water + Tween-80 93 % of control | dose: 100.0 mg/kg/injection, schedule: Q01DX009 (ip), vehicle: distilled water + Tween-80 94 % of control | dose: 200.0 mg/kg/injection, schedule: Q01DX009 (ip), vehicle: distilled water + Tween-80 95 % of control

CN1CCC(OC(=O)Oc2ccccc2)CC1
inactive: dose: 50.0 mg/kg/injection, schedule: Q01DX009 (ip), vehicle: saline 105 % of control | dose: 100.0 mg/kg/injection, schedule: Q01DX009 (ip), vehicle: saline 92 % of control | dose: 200.0 mg/kg/injection, schedule: Q01DX009 (ip), vehicle: saline 102 % of control

C/C(=N/NC(=O)c1ccccc1)c1ccccc1O
inactive: [4] 104 % of control | [5] 100 % of control | [6] 104 % of control | dose: 400.0 mg/kg/injection, schedule: Q01DX009 (ip), vehicle: saline with Tween-80 107 % of control

O=C(CCCCCCCCc1ccc(O)cc1)c1c(O)cccc1O
inactive: dose: 6.5 mg/kg/injection, schedule: Q01DX009 (ip), vehicle: Klucel (hydroxypropylcellulose) (HPC) 101 % of control | dose: 13.0 mg/kg/injection, schedule: Q01DX009 (ip), vehicle: Klucel (hydroxypropylcellulose) (HPC) 108 % of control | dose: 26.0 mg/kg/injection, schedule: Q01DX009 (ip), vehicle: Klucel (hydroxypropylcellulose) (HPC) 95 % of control | dose: 52.0 mg/kg/injection, schedule: Q01DX009 (ip), vehicle: Klucel (hydroxypropylcellulose) (HPC) 105 % of control

Cc1ccccc1C1(C)C(=O)c2ccccc2C1=O
inactive: dose: 100.0 mg/kg/injection, schedule: Q04DX002 (ip), vehicle: saline 101 % of control | dose: 200.0 mg/kg/injection, schedule: Q04DX002 (ip), vehicle: saline 106 % of control | dose: 400.0 mg/kg/injection, schedule: Q04DX002 (ip), vehicle: saline 100 % of control

O=[N+]([O-])c1ccc(/C=C/[P+](c2ccccc2)(c2ccccc2)c2ccccc2)o1
inactive: dose: 0.78 mg/kg/injection, schedule: Q01DX009 (ip), vehicle: saline 103 % of control | dose: 1.56 mg/kg/injection, schedule: Q01DX009 (ip), vehicle: saline 98 % of control | dose: 3.12 mg/kg/injection, schedule: Q01DX009 (ip), vehicle: saline 101 % of control

CCN1C(=NCCO)NS(=O)(=O)c2ccccc21
inactive: dose: 60.0 mg/kg/injection, schedule: Q01DX005 (ip), vehicle: saline with Tween-80 95 % of control | dose: 120.0 mg/kg/injection, schedule: Q01DX005 (ip), vehicle: saline with Tween-80 106 % of control | dose: 240.0 mg/kg/injection, schedule: Q01DX005 (ip), vehicle: saline with Tween-80 99 % of control

CC1(C)N=C(N)N=C(N)N1c1ccc(C(N)=O)cc1
inactive: [1] 100 % of control and 101 % of control | [2] 99 % of control and 100 % of control | [3] 101 % of control and 98 % of control

CN(C)C(=O)c1cccc2ccc[n+](C)c12
inactive: dose: 78.0 micrograms/kg/injection, schedule: Q04DX002 (ip), vehicle: saline 98 % of control | dose: 156.0 micrograms/kg/injection, schedule: Q04DX002 (ip), vehicle: saline 99 % of control | dose: 312.0 micrograms/kg/injection, schedule: Q04DX002 (ip), vehicle: saline 98 % of control

COc1cccc2c1C(=O)c1c(O)c3c(c(O)c1C2=O)CC(O)(/C(CO)=N/NC(=O)CCC(=O)N/N=C(\CO)C1(O)Cc2c(O)c4c(c(O)c2C(OC2CC(N)C(O)C(C)O2)C1)C(=O)c1c(OC)cccc1C4=O)CC3OC1CC(N)C(O)C(C)O1 (stereo not drawn)
114 % of control and 309 % of control: dose: 6.25 mg/kg/injection, schedule: Q01DX009 (ip), vehicle: water
active: dose: 0.78 mg/kg/injection, schedule: Q01DX009 (ip), vehicle: water 152 % of control | dose: 1.56 mg/kg/injection, schedule: Q01DX009 (ip), vehicle: water 170 % of control and 196 % of control | dose: 3.13 mg/kg/injection, schedule: Q01DX009 (ip), vehicle: water 218 % of control and 222 % of control | dose: 18.8 mg/kg/injection, schedule: Q04DX003 (ip), vehicle: water 154 % of control | dose: 37.5 mg/kg/injection, schedule: Q04DX003 (ip), vehicle: water 181 % of control
inactive: dose: 2.35 mg/kg/injection, schedule: Q04DX003 (ip), vehicle: water 110 % of control | dose: 4.7 mg/kg/injection, schedule: Q04DX003 (ip), vehicle: water 114 % of control | dose: 9.4 mg/kg/injection, schedule: Q04DX003 (ip), vehicle: water 121 % of control and 124 % of control | dose: 12.5 mg/kg/injection, schedule: Q01DX009 (ip), vehicle: water 102 % of control and 86 % of control | dose: 75.0 mg/kg/injection, schedule: Q04DX003 (ip), vehicle: water 118 % of control

CCCCCCCCCCCCCCCCN1c2ccccc2C(C)(C)C12C=Cc1cccc([N+](=O)[O-])c1O2 (stereo not drawn)
inactive: [4] 92 % of control | [5] 93 % of control | [6] 88 % of control

CCOc1ccc(N=Nc2c(O)n(-c3ccc(Br)cc3)c(=S)n(-c3ccccc3)c2=O)cc1
inactive: dose: 100.0 mg/kg/injection, schedule: Q01DX001 (ip), vehicle: saline with Tween-80 107 % of control | dose: 200.0 mg/kg/injection, schedule: Q01DX001 (ip), vehicle: saline with Tween-80 98 % of control | dose: 400.0 mg/kg/injection, schedule: Q01DX001 (ip), vehicle: saline with Tween-80 100 % of control
